Experiment: Release of lidocaine dissolved in oil through the silicone balloon wall of device 20
Type: physicochemical
Experimental: Experiments were performed using Lidocaine dissolved in oily substances using two different expansion volumes (one with 10 ml, the other with 16 ml) of the balloon of the device 20.
A. The balloon was expanded by injection of 10 ml of the oily solution into the balloon. A series of 4 experiments using lidocaine dissolved in oil was performed. The results were as follows: • 1. After 28 days—436 mg out of 500 mg was released. • 2. After 29 days—all the 500 mg was released (out of 500 mg). • 3. After 22 days—all the 500 mg was released (out of 500 mg). • 4. After 63 days—all the 1000 mg was released (out of 1000 mg).
B. The balloon was expanded by injection of 16 ml of the oily solution into the balloon. 2 groups and a series of 3 experiments using lidocaine dissolved in oil were performed. The results were as follows: • 1. After 21 days: —all the 500 mg was released (out of 500 mg) • […] was released, out of 1000 mg • 1086 mg was released, out of […] • 2. After 84 days—all the 500 mg was released (out of 500 mg) • all the 1000 mg was released (out of 1000 mg) • all the 1500 mg was released (out of 1500 mg)

CCN(CC)CC(=O)Nc1c(C)cccc1C [Lidocaine]
release through the silicone balloon wall (Lidocaine dissolved in oily substances, balloon expansion volumes 10 ml and 16 ml): released in large quantities
amount released (balloon expanded with 10 ml oily solution, experiment 1, after 28 days, out of 500 mg): 436 mg
amount released (balloon expanded with 10 ml oily solution, experiment 2, after 29 days, out of 500 mg): 500 mg
amount released (balloon expanded with 10 ml oily solution, experiment 3, after 22 days, out of 500 mg): 500 mg
amount released (balloon expanded with 10 ml oily solution, experiment 4, after 63 days, out of 1000 mg): 1000 mg
amount released (balloon expanded with 16 ml oily solution, after 21 days, out of 500 mg): 500 mg
amount released (balloon expanded with 16 ml oily solution, after 21 days, out of 1500 g): 1086 mg
amount released (balloon expanded with 16 ml oily solution, after 84 days, out of 500 mg): 500 mg
amount released (balloon expanded with 16 ml oily solution, after 84 days, out of 1000 mg): 1000 mg
amount released (balloon expanded with 16 ml oily solution, after 84 days, out of 1500 mg): 1500 mg

— patent publication US20190151625A1, “DRUG DELIVERY APPARATUS AND METHOD” (INNOVENTIONS LTD., priority 2016, published 2019)
